Assay results: paper PMC4598760 (Biomolecules, 2015)
Read-outs that look alike come from different tables or passages of the source.

Tests used:
[1] = system: hemagglutinin (HA) on immobilized influenza virus A/Mem71 (H3N1); type: binding, influenza A virus A/Memphis/1971
[2] = system: influenza virus A/Mem71 (H3N1); conditions: for Kd: read-out: K*d (apparent)
[3] = system: A/Udorn/307/1972 (A/Udorn72, H3N2)
[4] = system: A/Philippines/2/82/X-79 (A/Philips, H3N2)

CC(=O)N[C@H]1[C@H]([C@H](O)[C@H](O)CO)O[C@@](O[C@H]2[C@@H](O)[C@@H](CO)O[C@@H](O[C@H]3[C@H](O)[C@@H](O)C(O)O[C@@H]3CO)[C@@H]2O)(C(=O)O)C[C@@H]1O (stereo partly drawn) [α2-3 sialyllactose (OS-11), α2-3-sialyllactose]
Kd [1]: 26.3 mM | Koff [1]: 0.0736 s⁻¹ | Kd ([1]; monovalent, 288 K): 2.6 mM | Kd ([1]; monovalent, 293 K): 6.4 mM | Kd ([1]; monovalent, 296 K): 18.8 mM

CC(=O)N[C@H]1[C@H]([C@H](O)[C@H](O)CO)O[C@@](OC[C@H]2O[C@@H](O[C@H]3[C@H](O)[C@@H](O)C(O)O[C@@H]3CO)[C@H](O)[C@@H](O)[C@H]2O)(C(=O)O)C[C@@H]1O (stereo partly drawn) [α2-6 sialyllactose (OS-21), α2-6-sialyllactose]
Kd [1]: 47.6 mM | Koff [1]: 0.128 s⁻¹ | Kd ([1]; monovalent, 288 K): 6.8 mM | Kd ([1]; monovalent, 293 K): 11.2 mM | Kd ([1]; monovalent, 296 K): 23.8 mM

Kdnα2-6Galβ1-4Glcβ-Biotin [OS-19]
virus binding to surface-bound glycan (in words) [2]: does not bind

Neu5Acα2-3Galβ1-4Glcβ-Biotin [OS-11]
K*off (apparent) [2]: 4.1e-06 s⁻¹ | K*on (apparent) [2]: 7200 M⁻¹ s⁻¹ | Kd [2]: 0.58 nM

Neu5Acα2-6GalNAcα-Biotin [OS-18]
virus binding to surface-bound glycan (in words) [2]: binds

Neu5Acα2-6Galβ1-4Glcβ-Biotin [OS-21]
K*off (apparent) [2]: <3e-06 s⁻¹ | K*on (apparent) [2]: 7000 M⁻¹ s⁻¹ | Kd [2]: < 0.43 nM

Neu5Gcα2-6Galβ1-4Glcβ-Biotin [OS-20]
virus binding to surface-bound glycan (in words) [3]: binds | virus binding to surface-bound glycan (in words) [4]: do not
